How the values were obtained:
LRRK2 G2019S flies = assay: fly viability / survival of mutant LRRK2 G2019S flies; type: in vivo; conditions: for effect on fly viability / mortality: concentrations in the 50–100 μM range; for effect on fly viability: ligand concentration 500 μM
Experimental: Studies have shown that expression of the LRRK2-G2019S mutantion in Drosophila caused more severe PD phenotypes, including locomotor dysfunction, loss of dopaminergic neurons, and early mortality, relative to that of wild-type LRRK2 [31]. Prior to evaluating compounds 5 and 6 in the Drosophila model of PD, the effect of compound concentrations on fly viability was studied. At the ligand concentration of 500 μM, both compounds were lethal to G2019S flies (data not shown). […] As there was no remarkable difference in the survival rate between 50 and 100 μM for compound 5, this range was selected for compound 5 for the subsequent climbing assay and quantification of DA neurons.
Fly lines for 24B-Gal4 (muscle specific), ddc-Gal4 (dopaminergic neuron-specific), elav-Gal4 (pan-neuronal), UAS-mito-GFP, and UAS-dAMPK-KA were purchased from Bloomington Drosophila Stock Center. The parkin-null mutant flies were kind gifts from Chung J. and Cho K. S. (Korea Advanced Institute of Science and Technology, Daejeon, Korea). To generate transgenic mutant LRRK2 G2019S, cDNA containing a myc-tag at the C terminus was inserted into pUAST plasmid and microinjected into Drosophila embryos (BestGene). Sequencing of cloned products was performed before they were microinjected into the embryos. Climbing assays were performed according to a previously described method. Briefly, 20 female adult flies from each group were randomly selected after being anaesthetised and placed in a vertical plastic column (length 25 cm; diameter 1.5 cm). Age-matched normal flies were used as controls. After a 2-hour recovery period from CO2 exposure, flies were gently tapped to the bottom of the column, and the number of flies that reached the top of column at 1 min was counted. Results are presented as mean ± SEM of the scores obtained from three independent experiments. To study the effect of compounds, flies were fed with cornmeal-agar medium supplemented with the DMSO solution of the compound immediately at post-eclosion (for parkin-null flies) or at day 35 onwards (for LRRK2 mutant flies) for a period of 25 days. Immunohistochemical analysis of whole-mount adult fly brains were prepared according to published protocols and stained with rabbit anti-TH (1:300, Pel-Freez Biologicals) as primary antibody. The stained samples were viewed using an Olympus Fluoview Upright Confocal Microscope. DA neurons were quantified according to previously published method. The size of mito-GFP puncta was measured using the ImageJ program and expressed as mean ± SD (n ≥ 10 DA neurons per experimental group). Statistical significance for all the quantitative data obtained were analyzed using one-way ANOVA with Tukey’s test HSD post hoc test (*p < 0.05, **p < 0.01).

[1] = test system: TAMH (TGF-α overexpressing mouse hepatocytes); assay: cell viability assay in TAMH hepatocytes (Cell-Titer-Glo); type: cell-based; conditions: concentrations less than 30 μM, 24 h
Experimental: Besides the mutagenicity study, compounds 5 and 6 were also subjected to cell viability assays using transforming growth factor-alpha mouse hepatocyte (TAMH) and HL-1 cardiomyocyte to assess the cytotoxic potential. TAMH lines were treated with compounds 5 and 6 in eight different concentrations (100 μM, 33.3 μM, 11.1 μM, 3.7 μM, 1.23 μM, 0.41 μM, 0.13 μM, 0.045 μM), and the percentage of viable cells was plotted against the logarithm of ligand concentration (S10B and S10C Fig). […] Acetaminophen, a drug with direct hepatotoxic potential, was used as the positive control in this assay (S10A Fig). […] Doxorubicin, a chemotherapeutic agent known to cause dose-dependent cardiotoxicity, was used as the positive control in this assay (S10D Fig).
Immortalised hepatocyte and cardiomyocyte cell lines, TAMH (TGF-α overexpressing mouse hepatocytes) and HL-1 were used respectively as models for in vitro toxicity studies. Both cell lines were cultured in accordance with previously described methods. […] The cell-reagent mixture was transferred to a solid white flat-bottom 96-well plate (Greiner 655207) for luminescence reading. Luminescence was recorded with an integration time of 0.25 second with a Tecam Infinite® M200 Microplate reader. Data are expressed as percentage of viable cells compared to DMSO-treated controls. […]

Structure (SMILES)	effect on fly viability / mortality (LRRK2 G2019S flies)	effect on fly viability (LRRK2 G2019S flies)	cytotoxicity (cell viability) [1]
Cc1cc(C)nc(N2CCN(C(=O)c3c[nH]c4ccccc34)CC2)n1 [Compound 5, 3‐[4‐(4,6‐Dimethylpyrimidin‐2‐yl)piperazine‐1‐carbonyl]‐1H‐indole]	able to delay the G2019S fly mortality	lethal	non-cytotoxic
Cc1cc(C)nc(N2CCN(C(=O)Cc3c(C)[nH]c4ccccc34)CC2)n1 [Compound 6, 1‐[4‐(4,6‐Dimethylpyrimidin‐2‐yl)piperazin‐1‐yl]‐2‐(2‐methyl‐1H‐indol‐3‐yl)ethan‐1‐one]	toxicity	lethal	non-cytotoxic
